Data on three compounds can be found in patent publication US11046716B2, “Beta-lactamase inhibitors” (priority 2015, dated 2021).

The target of one test is T1, SHV-5 (Klebsiella pneumoniae, UniProt P0A3M1).
T1 construct: made in house; host or cells: E. coli BL21(DE3)
The test can be described thus: β-lactamase enzyme inhibition assay, SHV-5 (cefotaxime substrate). The class given is biochemical. In outline:
(§1)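 Native untagged enzymes expressed in E. coli BL21(DE3), purified by cation exchange and gel filtration. Inhibitor preincubated with enzyme 15 min at 37 °C; hydrolysis followed by absorbance: imipenem at 300 nm for KPC-2, cefotaxime at 260 nm for SHV-5. IC50 as concentration halving initial hydrolysis rate versus inhibitor-free wells.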

For another test, the target named is T2, KPC-2 (Klebsiella pneumoniae, UniProt Q9F663).
T2 construct: made in house; host or cells: E. coli BL21(DE3)
T2 sequence (Q9F663 25-293, looked up): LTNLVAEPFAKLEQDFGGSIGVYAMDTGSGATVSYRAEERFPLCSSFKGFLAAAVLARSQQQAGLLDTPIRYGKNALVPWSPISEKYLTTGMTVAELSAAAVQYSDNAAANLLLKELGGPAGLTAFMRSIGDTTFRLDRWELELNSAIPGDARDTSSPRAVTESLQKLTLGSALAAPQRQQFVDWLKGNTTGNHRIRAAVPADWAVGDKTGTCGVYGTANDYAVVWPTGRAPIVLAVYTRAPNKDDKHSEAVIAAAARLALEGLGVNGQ
Briefly: β-lactamase enzyme inhibition assay, KPC-2 (imipenem substrate). The following applies: Class A; imipenem substrate, 300 nm; read-out: KPC-2. The class given is biochemical. Summed up:
as §1

In a further test the target is T3, VIM-2 (Escherichia coli, UniProt Q5U7L7).
T3 construct: made in house; host or cells: E. coli BL21(DE3)
The test can be described thus: β-lactamase enzyme inhibition assay, VIM-2 (nitrocefin substrate). The following applies: Class B; nitrocefin substrate, 486 nm; read-out: VIM-2. It counts as biochemical. In outline:
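Nitrocefin hydrolysis, read at 486 nm over 10 min, served as the measure of VIM-2 activity. The enzyme had been incubated with compound for 15 min at 37 °C before 100 μM substrate was added, and IC50 values were fitted from percent inhibition of the initial rate.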

The target of the next test is T4, AmpC (Enterobacter cloacae, UniProt P05364).
T4 construct: made in house; host or cells: E. coli BL21(DE3)
T4 sequence (P05364 21-381): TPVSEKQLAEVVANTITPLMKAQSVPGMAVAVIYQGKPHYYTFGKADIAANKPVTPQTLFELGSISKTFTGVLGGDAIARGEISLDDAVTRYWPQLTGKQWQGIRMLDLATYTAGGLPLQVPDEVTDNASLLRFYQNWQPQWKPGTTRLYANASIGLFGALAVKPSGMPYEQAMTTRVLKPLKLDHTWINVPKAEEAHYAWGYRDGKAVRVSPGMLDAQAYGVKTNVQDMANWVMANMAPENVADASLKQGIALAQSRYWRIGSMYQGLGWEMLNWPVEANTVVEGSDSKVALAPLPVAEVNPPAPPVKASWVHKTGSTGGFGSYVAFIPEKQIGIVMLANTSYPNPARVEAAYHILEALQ
Briefly: β-lactamase enzyme inhibition assay, p99 AmpC (nitrocefin substrate). The class given is biochemical. In outline:
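Native untagged enzymes expressed in E. coli BL21(DE3), purified by cation exchange and gel filtration. Inhibitor preincubated with enzyme 15 min at 37 °C; hydrolysis followed by absorbance. IC50 as concentration halving initial hydrolysis rate versus inhibitor-free wells.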

For the next test, the target named is OXA-48 (UniProt Q6XEC0). The test can be described thus: β-lactamase enzyme inhibition assay, Class D oxacillinase. The class given is biochemical. The following applies: read-out: OXA-48.
The test system of test [1] is E. coli expressing the Class A Extended Spectrum Beta-Lactamase (ESBL) CTX-M-15. The test can be described thus: Broth microdilution MIC assay with ceftazidime, E. coli CTX-M-15. The class given is cell-based. The settings on record: Fixed CAZ (ceftazidime) 4 μg/mL; E. coli ESBL4 CTX-M-15. Summed up: (§2)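 Visual MIC readout of the test compound after 16-20 hours at 37° C, measured in the presence of a constant 4 μg/ml β-lactam. Compound concentrations spanned 16 to 0.125 μg/mL in 2-fold steps in cation-adjusted Mueller Hinton broth.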

For test [2], the system named is E. cloacae expressing the Class C P99. Briefly: Broth microdilution MIC assay with ceftazidime, E. cloacae P99. The class given is cell-based. The following applies: Fixed CAZ (ceftazidime) 4 μg/mL; E. cl. 144200 p99 AmpC. Summed up:
as §2

Test [3] has as its system K. pneumoniae expressing the Class A carbapenemase KPC-2. The test can be described thus: Broth microdilution MIC assay with meropenem, K. pneumoniae KPC-2. The following applies: Fixed Mero (meropenem) 4 μg/mL; K. p. 156319 KPC-3. It counts as cell-based. Summed up:
as §2

Test [4] relates to P. aeruginosa expressing the Class B carbapenemase VIM-2. The test can be described thus: Broth microdilution MIC assay with meropenem, P. aeruginosa VIM-2. It counts as cell-based. The following applies: Fixed Mero (meropenem) 4 μg/mL; P. aerug. 2775 VIM-2. In outline: as §2
The test system of test [5] is K. pneumoniae expressing the class A carbapenemase KPC-2 and the class B carbapenemase VIM-4. The test can be described thus: Broth microdilution MIC assay with meropenem, K. pneumoniae KPC-2 and VIM-4. It counts as cell-based. The settings on record: Fixed Mero (meropenem) 4 μg/mL; K. p. A-1797 KPC-2 VIM-4. In outline: as §2
The subject of test [6] is K. pneumoniae producing the Class D carbapenemase OXA-48. The test can be described thus: Broth microdilution MIC assay with meropenem, K. pneumoniae OXA-48. The following applies: Fixed Mero (meropenem) 4 μg/mL; K. p. 11978 OXA-48. It counts as cell-based. Summed up: as §2

T1 sequence (P0A3M1 22-286): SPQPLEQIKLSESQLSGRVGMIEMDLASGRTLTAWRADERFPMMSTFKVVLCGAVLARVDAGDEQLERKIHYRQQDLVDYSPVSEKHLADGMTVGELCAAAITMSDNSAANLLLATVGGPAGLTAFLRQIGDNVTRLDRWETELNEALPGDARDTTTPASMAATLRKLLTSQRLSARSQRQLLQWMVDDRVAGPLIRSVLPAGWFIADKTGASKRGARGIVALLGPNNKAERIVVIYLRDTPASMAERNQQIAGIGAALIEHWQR

Consider `CC(C)(CN)CNC(=O)c1cn(CC(=O)N[C@H]2Cc3cccc(C(=O)O)c3OB2O)nn1` [Example 86, (R)-3-(2-(4-((3-amino-2,2-dimethylpropyl)carbamoyl)-1H-1,2,3-triazol-1-yl)acetamido)-2-hydroxy-3,4-dihydro-2H-benzo[e][1,2]oxaborinine-8-carboxylic acid], for which the IC50 against SHV-5 was 0.1 to 1 µM; at KPC-2, < 0.1 µM; on VIM-2, < 0.1 µM; on AmpC, 0.1 to 1 µM; at OXA-48, 1 to 10 µM. In addition, the “MIC (μg/mL) of Exemplary Compounds in presence of fixed β-lactams: E. coli ESBL4 CTX-M-15” value (from here on “MIC (μg/mL) … E. coli ESBL4 CTX-M-15”) in [1] is listed as “C (C represents an MIC of <1 μg/mL)”. In test [2], the “MIC (μg/mL) of Exemplary Compounds in presence of fixed β-lactams: E. cl. 144200 p99 AmpC” value (shortened to “MIC (μg/mL) … E. cl. 144200 p99 AmpC”) is “C (C represents an MIC of <1 μg/mL)”. For the same compound, in test [3], the “MIC (μg/mL) of Exemplary Compounds in presence of fixed β-lactams: K. p. 156319 KPC-3” value (“MIC (μg/mL) … K. p. 156319 KPC-3” below) is reported as “C (C represents an MIC of <1 μg/mL)”. For the same compound, the “MIC (μg/mL) of Exemplary Compounds in presence of fixed β-lactams: P. aerug. 2775 VIM-2” value (from here on “MIC (μg/mL) … P. aerug. 2775 VIM-2”) in test [4] is recorded as “C (C represents an MIC of <1 μg/mL)”. In addition, the “MIC (μg/mL) of Exemplary Compounds in presence of fixed β-lactams: K. p. A-1797 KPC-2 VIM-4” value (“MIC (μg/mL) … K. p. A-1797 KPC-2 VIM-4” for short) in [5] is “C (C represents an MIC of <1 μg/mL)”. The “MIC (μg/mL) of Exemplary Compounds in presence of fixed β-lactams: K. p. 11978 OXA-48” value (“MIC (μg/mL) … K. p. 11978 OXA-48” for short) in [6] was “B (B represents an MIC between 1 and 16 μg/mL inclusive)”.
On to `CNCCNC(=O)c1cn(CC(=O)N[C@H]2Cc3cccc(C(=O)O)c3OB2O)nn1` [Example 87, (R)-2-hydroxy-3-(2-(4-((2-(methylamino)ethyl)carbamoyl)-1H-1,2,3-triazol-1-yl)acetamido)-3,4-dihydro-2H-benzo[e][1,2]oxaborinine-8-carboxylic acid], for which the IC50 on SHV-5 was 0.1 to 1 µM; at KPC-2 it was < 0.1 µM; at VIM-2, < 0.1 µM; on AmpC, < 0.1 µM; at OXA-48, 1 to 10 µM. The “MIC (μg/mL) … E. coli ESBL4 CTX-M-15” value in [1] is reported as “C (C represents an MIC of <1 μg/mL)”. For the same compound, the “MIC (μg/mL) … E. cl. 144200 p99 AmpC” value in test [2] is given as “C (C represents an MIC of <1 μg/mL)”. Besides, in test [3], the “MIC (μg/mL) … K. p. 156319 KPC-3” value is listed as “C (C represents an MIC of <1 μg/mL)”. Also, the “MIC (μg/mL) … P. aerug. 2775 VIM-2” value in test [4] is on record as “C (C represents an MIC of <1 μg/mL)”. Moreover, in [5], the “MIC (μg/mL) … K. p. A-1797 KPC-2 VIM-4” value was “C (C represents an MIC of <1 μg/mL)”. In test [6], the “MIC (μg/mL) … K. p. 11978 OXA-48” value is “B (B represents an MIC between 1 and 16 μg/mL inclusive)”.
For the compound `O=C(Cn1cc(C(=O)NC2CNC2)nn1)N[C@H]1Cc2cccc(C(=O)O)c2OB1O` [Example 88, (R)-3-(2-(4-(azetidin-3-ylcarbamoyl)-1H-1,2,3-triazol-1-yl)acetamido)-2-hydroxy-3,4-dihydro-2H-benzo[e][1,2]oxaborinine-8-carboxylic acid], the IC50 against SHV-5 was 0.1 to 1 µM; at KPC-2 it was < 0.1 µM; on VIM-2 it was < 0.1 µM; against AmpC it was < 0.1 µM; on OXA-48, 1 to 10 µM. Besides, the “MIC (μg/mL) … E. coli ESBL4 CTX-M-15” value in [1] is recorded as “C (C represents an MIC of <1 μg/mL)”. Further, the “MIC (μg/mL) … E. cl. 144200 p99 AmpC” value in test [2] is on record as “C (C represents an MIC of <1 μg/mL)”. Moreover, in [3], the “MIC (μg/mL) … K. p. 156319 KPC-3” value is “B (B represents an MIC between 1 and 16 μg/mL inclusive)”. The “MIC (μg/mL) … P. aerug. 2775 VIM-2” value in test [4] is reported as “C (C represents an MIC of <1 μg/mL)”. Further, the “MIC (μg/mL) … K. p. A-1797 KPC-2 VIM-4” value in [5] was “C (C represents an MIC of <1 μg/mL)”. Further, in test [6], the “MIC (μg/mL) … K. p. 11978 OXA-48” value is “B (B represents an MIC between 1 and 16 μg/mL inclusive)”.
